Legend:
primary neurons = assay: CCK8 cell viability (toxicity) assay in primary neurons; assay type: cell-based, mouse; conditions: Mus musculus, Primary neuron, CCK8 toxicity test
From the text: (§1) The CCK8 cell viability assay (CCK8) was adopted. Its principle is mainly based on the reduction reaction of WST-8 (chemical name: 2-(2-methoxy-4-nitrophenyl)-3-(4-nitrophenyl)-5-(2,4-disulfophenyl)-2H-tetrazolium monosodium salt). In the presence of living cells, WST-8 can be reduced by dehydrogenases in mitochondria to generate a highly water-soluble orange-yellow formazan product. The color intensity is directly proportional to the number of living cells, wherein the quantity of living cells can be indirectly reflected by measuring the absorbance of formazan products (typically at a wavelength of 450 nm). The CCK-8 assay is widely used in cell proliferation assay, cytotoxicity assay and tumor drug sensitivity test.
Primary hippocampal neuron culture: After ICR fetal mice at 18-21 days of gestation (E18-E21) were anesthetized, the fetal mice were dissected in a clean area and immersed in 75% ethanol for 1-2 min. The mouse head was taken out, the surface skull was removed with micro-scissors, and the brain tissue was transferred to an anatomical dissociation solution. Under a microscope, blood vessels and meninges were removed, hippocampal tissue was isolated, the extracted hippocampal tissue was placed in a 3.5 cm dish containing the anatomical dissociation solution, and the hippocampal tissue was cut into small fragments using micro-scissors. The minced hippocampal tissue was transferred to a 7 ml EP tube using a pipette gun. The hippocampal tissue hereinabove was centrifuged at 1000 rpm for 3-5 min, and the anatomical separation solution was discarded. 0.5-1 ml of papain digestion solution was added to the EP tube hereinabove, and the EP tube was placed in a 37°C incubator for 30 min. 300 µL of Trituration buffer 300 (DNase) and 5 mL of complete medium were added, and the hippocampal tissue was gently pipetted more than 10 times. The cell suspension was allowed to stand for 3 min, and 3-4 ml of supernatant was gently aspirated into a 15 ml tube using a pipette. 3-4 ml of complete medium was added again, and the hippocampal tissue was gently pipetted more than 10 times. Step 8 was repeated, and 3-4 ml of supernatant was transferred to the same 15 ml tube again. The previous step was repeated again. The collected supernatant was centrifuged at 1000 rpm, the supernatant was discarded, and 5 ml of complete medium was added. The mixture was gently pipetted and suspended, and then centrifuged again at 1000 rpm for 5 min. The complete medium was added to resuspend the cells, and then a portion of the cells was aspirated for counting. Generally, when neuronal cells were planted in a 24-well plate, the concentration of the cell suspension was generally 2×10^5/ml, and 500 µl of cells is inoculated per well. The resuspended neuron cells with a diluted ratio were seeded onto a glass slide treated with PDL, then the glass slide was placed in a 37°C incubator for 10 min, an appropriate amount of complete medium was added, and then the culture is continued in the incubator.

293T cell line = assay: CCK8 cell viability (toxicity) assay in 293T cell line; assay type: cell-based; conditions: Homo sapiens, HEK-293T; CCK8 toxicity test, 293T cell line
From the text: as §1
In in vitro experiments, the compound stock solution was prepared into 10 mM with DMSO and diluted with a culture medium before use. The 293T cell line was used for preliminary concentration screening of the compound, wherein concentration gradients were set as follows: 5 µmol, 10 µmol, 20 µmol, 40 µmol, 80 µmol and 160 µmol. After the cells were treated with the compound for 24 h, the CCK8 detection kit was used, wherein the cell viability was calculated based on the absorbance values detected by a microplate reader. Data processing was performed using GraphPad Prism software to plot the IC50 curve.

Structure (SMILES): O=C(NC1CN(c2ccncn2)CC1CO)c1ccc2ncccc2c1 (centres unmarked) [compound of Formula II, N-[4-(HYDROXYMETHYL)-1-(PYRIMIDIN-4-YL)PYRROLIDIN-3-YL]QUINOLINE-6-CARBOXAMIDE]
- IC50 (primary neurons): 1.67 µM
- IC50 (293T cell line): 38.6 µM

— EP4818330A1, “PHARMACEUTICAL PREPARATION FOR DIAGNOSING AND TREATING ALZHEIMER'S DISEASE” (Shanghai East Hospital Tongji University, priority 2023, dated 2025)
